pIC50, pKd: −log10 of the molar value.

Assay [1] deals with GM-CSFR/JAK2/STAT5 pathway in CSTF-1 cells. Description: CSTF-1 cell-based reporter assay (beta-lactamase, GM-CSF stimulated). Particulars: Homo sapiens; GM-CSF at 2 ng/mL, 4 hours; read-out: Cell Assay: CS TF-1 reporter assay IC50. As for the experimental part:
CSTF-1 Cell-Based Reporter Assay
CSTF-1 cells are derived from the human erythroleukemia cell line that is growth dependent on GM-CSF and has an intact GM-CSFR/JAK2/STAT5 pathway. The cell line contains stably integrated beta-lactamase reporter gene under the control of the […] (irf 1) response element recognized by the activated transcription factor STATS. csTF-1 cells (Invitrogen K1219) were washed with assay media (97% OPTIMEM/0.5% dialyzed FBS/0.1 mM NEAA/1 mM Na pyr/P/S) and seeded in the same media at 5×10^5 cell/mL in T150 flask. After 16 hour incubation, cells were seeded at 2×10^5 cell/well in 50 μl volume, into Costar, clear bottom, 96-well assay plates. Serial dilutions of compounds were added to the plates with final DMSO concentration at 0.5% and GM-CSF at 2 ng/mL and the plates were then incubated at […] and 5% CO2 for 4 hours. The plates were brought to room temperature before adding Substrate Mixture according to manufacturer's protocol (Invitrogen, Catalog #K1085). The assay plates containing the substrate mixture were incubated in the dark at room temperature for 2 hours. Blue and green fluorescence was measured with excitation at 409 nm and emission at 460 nm (for blue) and excitation at 409 nm and emission at 530 nm (for green) using Spectra Max Gemini EM.

The next assay addresses T1, JAK2 (Homo sapiens, UniProt O60674).
T1 construct: made in house
Description: Competition binding assay, JAK2. The source says:
(§1) Determination of Binding Constants (Kd) of the Compounds Against JAK Kinases
(§2) Competition binding assays used herein were developed, validated and performed as described in Fabian et al., Nature Biotechnology 2005, 23,329-336. Kinases were produced as fusions to T7 phage (See, Fabian et al. or WO04/015142) or alternatively, the kinases were expressed in HEK-293 cells and subsequently tagged with DNA for PCR detection (See, WO08/005,310). For the binding assays, streptavidin-coated magnetic beads were treated with biotinylated affinity ligands for 30 min at rt to generate affinity resins. The liganded beads were blocked with excess biotin and washed with blocking buffer (SeaBlock (Pierce), 1% BSA, 0.05% Tween 20, 1 mM DTT) to remove unbound ligand and to reduce non-specific binding. Binding reactions were assembled by combining kinase, liganded affinity beads, and test compounds in 1× binding buffer (20% SeaBlock, 0.17×PBS, 0.05% Tween 20, 6 mM DTT). Test compounds were prepared as 100× stocks in DMSO and rapidly diluted into the aqueous environment. DMSO was added to control assays lacking a test compound. Primary screen interactions were performed in polypropylene 384-well plates in a final volume of 34 μL, while Kd determinations were performed in polystyrene 96-well plates in a final volume of 135 μL. The assay plates were incubated at room temperature with shaking for 1 hour, long enough for binding reactions to reach equilibrium, and the affinity beads were washed extensively with wash buffer (1×PBS, 0.05% Tween 20) to remove unbound protein. The beads were then resuspended in elution buffer (1×PBS, 0.05% Tween 20, 2 μM non-biotinylated affinity ligand) and incubated at room temperature with shaking for 30 min. The kinase concentration in the eluates was measured by quantitative PCR. Each kinase was tested individually against each compound. Kds were determined using eleven serial threefold dilutions. A selectivity score, which is a quantitative measure of selectivity of a compound against a panel of enzymes, may be calculated for a compound by dividing the number of enzymes for which a compound meets a set criteria, (for example, a binding constant of 100 nM or less), by the total number of enzymes tested.

The target of the next assay is T2, JAK3 (Homo sapiens, UniProt P52333).
T2 construct: made in house
T2 sequence (P52333 1-1124): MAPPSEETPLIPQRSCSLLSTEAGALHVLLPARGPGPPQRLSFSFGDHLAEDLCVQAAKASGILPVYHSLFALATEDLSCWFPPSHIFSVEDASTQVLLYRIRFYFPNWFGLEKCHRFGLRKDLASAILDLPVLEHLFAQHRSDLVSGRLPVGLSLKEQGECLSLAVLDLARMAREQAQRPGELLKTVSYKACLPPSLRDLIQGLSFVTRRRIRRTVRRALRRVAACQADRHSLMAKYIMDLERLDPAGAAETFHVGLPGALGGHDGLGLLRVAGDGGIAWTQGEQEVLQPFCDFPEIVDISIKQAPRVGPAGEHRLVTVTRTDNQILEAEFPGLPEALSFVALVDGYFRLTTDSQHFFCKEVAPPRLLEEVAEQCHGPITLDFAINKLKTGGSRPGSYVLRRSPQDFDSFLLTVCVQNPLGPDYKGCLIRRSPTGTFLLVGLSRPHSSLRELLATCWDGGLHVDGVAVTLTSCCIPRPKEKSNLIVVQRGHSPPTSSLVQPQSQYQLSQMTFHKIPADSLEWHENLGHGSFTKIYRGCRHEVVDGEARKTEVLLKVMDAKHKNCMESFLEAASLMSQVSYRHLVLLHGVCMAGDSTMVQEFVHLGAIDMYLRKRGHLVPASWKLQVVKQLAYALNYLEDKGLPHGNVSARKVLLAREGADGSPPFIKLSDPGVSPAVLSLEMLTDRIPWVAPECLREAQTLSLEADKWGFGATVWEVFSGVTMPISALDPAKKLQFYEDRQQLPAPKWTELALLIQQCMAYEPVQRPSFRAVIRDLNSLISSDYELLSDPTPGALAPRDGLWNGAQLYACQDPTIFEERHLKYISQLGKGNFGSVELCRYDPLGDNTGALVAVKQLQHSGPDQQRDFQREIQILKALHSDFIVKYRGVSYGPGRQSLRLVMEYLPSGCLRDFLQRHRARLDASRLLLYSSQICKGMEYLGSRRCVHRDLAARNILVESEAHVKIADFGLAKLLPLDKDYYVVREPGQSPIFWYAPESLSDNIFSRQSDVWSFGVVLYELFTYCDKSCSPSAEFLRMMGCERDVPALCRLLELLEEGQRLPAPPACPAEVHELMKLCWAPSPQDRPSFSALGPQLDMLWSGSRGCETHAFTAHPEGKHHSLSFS
Description: Competition binding assay, JAK3.
Text: as §1, §2

Another assay has as its target T3, TYK2 (Homo sapiens, UniProt P29597).
T3 construct: made in house
Briefly: Competition binding assay, TYK2.
Text: as §1, §2

Assay [2] deals with panel of distinct kinases excluding mutant variants, typically 359 or 386 kinases. Briefly: Kinase selectivity score S10 from binding panel. The following applies: compound at 10 μM; fraction of kinases with inhibition of 90% or greater. On the procedure: as §2

T3 sequence (P29597 whole entry): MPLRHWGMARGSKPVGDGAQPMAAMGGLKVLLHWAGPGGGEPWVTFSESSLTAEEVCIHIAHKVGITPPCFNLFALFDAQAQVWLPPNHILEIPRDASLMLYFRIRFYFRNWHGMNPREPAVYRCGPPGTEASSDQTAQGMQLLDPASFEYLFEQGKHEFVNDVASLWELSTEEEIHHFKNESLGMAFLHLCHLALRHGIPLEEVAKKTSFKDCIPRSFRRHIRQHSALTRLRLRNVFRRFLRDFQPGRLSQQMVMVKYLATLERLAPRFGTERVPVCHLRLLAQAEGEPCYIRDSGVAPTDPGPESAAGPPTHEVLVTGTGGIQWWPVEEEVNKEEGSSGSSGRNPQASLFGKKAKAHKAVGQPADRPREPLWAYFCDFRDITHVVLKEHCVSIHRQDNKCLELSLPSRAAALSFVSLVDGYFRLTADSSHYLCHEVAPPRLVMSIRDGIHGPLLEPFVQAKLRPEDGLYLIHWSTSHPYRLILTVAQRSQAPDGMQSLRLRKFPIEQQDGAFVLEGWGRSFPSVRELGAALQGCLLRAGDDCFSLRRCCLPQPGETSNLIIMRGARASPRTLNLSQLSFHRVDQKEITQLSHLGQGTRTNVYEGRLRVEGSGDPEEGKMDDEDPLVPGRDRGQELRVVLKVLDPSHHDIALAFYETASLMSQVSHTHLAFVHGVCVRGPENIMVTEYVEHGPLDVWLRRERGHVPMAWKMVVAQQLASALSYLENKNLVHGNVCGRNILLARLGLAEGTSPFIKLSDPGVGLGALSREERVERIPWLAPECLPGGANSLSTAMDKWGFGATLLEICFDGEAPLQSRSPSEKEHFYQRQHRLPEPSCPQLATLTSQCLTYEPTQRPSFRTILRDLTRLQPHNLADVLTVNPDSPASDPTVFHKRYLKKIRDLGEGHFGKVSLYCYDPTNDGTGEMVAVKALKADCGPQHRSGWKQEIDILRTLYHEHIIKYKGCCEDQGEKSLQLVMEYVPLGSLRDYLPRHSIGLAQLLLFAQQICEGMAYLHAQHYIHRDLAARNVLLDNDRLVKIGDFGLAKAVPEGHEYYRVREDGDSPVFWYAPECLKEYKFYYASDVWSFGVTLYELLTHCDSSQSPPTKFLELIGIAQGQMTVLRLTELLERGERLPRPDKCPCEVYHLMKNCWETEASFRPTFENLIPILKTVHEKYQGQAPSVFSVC
T1 sequence (O60674 whole entry): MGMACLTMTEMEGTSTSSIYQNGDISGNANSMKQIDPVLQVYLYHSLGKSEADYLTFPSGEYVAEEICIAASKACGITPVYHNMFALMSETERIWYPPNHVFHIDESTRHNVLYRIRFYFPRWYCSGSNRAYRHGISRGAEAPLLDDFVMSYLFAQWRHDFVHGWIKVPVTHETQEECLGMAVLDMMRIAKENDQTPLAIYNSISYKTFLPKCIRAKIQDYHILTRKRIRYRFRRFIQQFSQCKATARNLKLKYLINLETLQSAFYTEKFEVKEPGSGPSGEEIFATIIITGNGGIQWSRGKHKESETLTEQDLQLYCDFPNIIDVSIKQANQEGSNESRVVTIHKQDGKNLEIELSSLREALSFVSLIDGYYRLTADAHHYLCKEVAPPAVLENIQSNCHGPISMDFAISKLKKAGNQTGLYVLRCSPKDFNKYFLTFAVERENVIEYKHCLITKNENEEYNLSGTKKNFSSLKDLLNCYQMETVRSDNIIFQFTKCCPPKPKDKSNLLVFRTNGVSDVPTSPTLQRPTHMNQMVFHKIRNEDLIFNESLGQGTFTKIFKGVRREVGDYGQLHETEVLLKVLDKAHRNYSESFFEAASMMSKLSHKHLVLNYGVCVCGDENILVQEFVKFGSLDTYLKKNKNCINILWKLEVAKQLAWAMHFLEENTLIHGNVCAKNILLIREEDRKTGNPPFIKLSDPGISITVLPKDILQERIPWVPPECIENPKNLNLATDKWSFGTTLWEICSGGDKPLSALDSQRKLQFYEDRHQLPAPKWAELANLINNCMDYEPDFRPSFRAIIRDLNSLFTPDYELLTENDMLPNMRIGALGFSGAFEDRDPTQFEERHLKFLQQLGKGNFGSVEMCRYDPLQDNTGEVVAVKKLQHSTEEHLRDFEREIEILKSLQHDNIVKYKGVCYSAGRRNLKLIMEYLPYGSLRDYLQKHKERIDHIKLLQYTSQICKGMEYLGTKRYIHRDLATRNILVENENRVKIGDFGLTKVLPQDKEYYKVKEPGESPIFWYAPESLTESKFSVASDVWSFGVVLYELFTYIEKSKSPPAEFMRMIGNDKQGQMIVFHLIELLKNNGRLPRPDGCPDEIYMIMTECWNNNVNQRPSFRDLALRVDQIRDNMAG

By pIC50 is commonly meant the negative decadic logarithm of the IC50, by convention in mol/L. The term pKd denotes the negative decadic logarithm of the Kd, by convention in mol/L. A higher pKd goes with a low Kd. Consider `Cc1cc(Nc2nc(C3(c4ccc(F)cc4)CCOCC3)nc3ccccc23)n[nH]1` [Example 4, 2-(4-(4-fluorophenyl)tetrahydro-2H-pyran-4-yl)-N-(5-methyl-1H-pyrazol-3-yl)quinazolin-4-amine], for which the pIC50 in assay [1] was 6.30 to 7.00. Further, the pKd at JAK2 is 8.00 to 9.00; on JAK3 it was 7.00 to 8.00; on TYK2, no less than 8.00. In assay [2], the “S-Score: S(10) at 10 μM” value is on record as “A (A≦0.3)”.
Taken in the same sequence, the figures for `Cc1cc(Nc2nc([C@]3(c4ccc(F)cc4)C[C@@H](O)C3)nc3ccccc23)n[nH]1` [Example 3, (1R,3R)-3-(4-fluorophenyl)-3-(4-((5-methyl-1H-pyrazol-3-yl)amino)quinazolin-2-yl)cyclobutanol] were 6.30 to 7.00, no less than 9.00, 7.00 to 8.00, 7.00 to 8.00 and “A (A≦0.3)”.
The like results for `Cc1cc(Nc2nc([C@]3(c4ccc(F)cc4)C[C@H](O)C3)nc3ccccc23)n[nH]1` [Example 1, (1S,3S)-3-(4-fluorophenyl)-3-(4-(5-methyl-1H-pyrazol-3-ylamino)quinazolin-2-yl)cyclobutanol] were, in that order, 6.30 to 7.00, no less than 9.00, 7.00 to 8.00, 7.00 to 8.00 and “A (A≦0.3)”.
Taken in the same sequence, the figures for `Cc1cc(Nc2nc([C@]3(c4ccc(F)cc4)C[C@@H](F)C3)nc3ccccc23)n[nH]1` [Example 2, 2-((1R,3R)-3-fluoro-1-(4-fluorophenyl)cyclobutyl)-N-(5-methyl-1H-pyrazol-3-yl)quinazolin-4-amine] were less than 6.30, 8.00 to 9.00, 7.00 to 8.00, 7.00 to 8.00 and “A (A≦0.3)”.

Values taken from patent US20130225615A1, “2-CYCLOQUINAZOLINE DERIVATIVES AND METHODS OF USE THEREOF” (AMBIT BIOSCIENCES CORPORATION, priority 2010, published 2013).
